The values below come from patent US20130011845A1, “MICRORNA REGULATING THE INSULIN SIGNALING PATHWAY, AND METHOD FOR SCREENING MATERIAL FOR CONTROLLING THE ACTION OF A TARGET THEREOF” (SNU R & DB Foundation, priority 2009, published 2013).

The series relates to 3′UTR of fog2 mRNA. Kind of series: luciferase assay with wild-type or mutated miR-200 target sites of FOG2 3′UTR. The conditions noted are these: Hela cell lines, compared to siGFP. The series is classed as cell-based, human. The procedure: The inventors examined whether human miR-200 family miRNAs regulate the expression by directly binding to 3′ UTR of fog2 mRNA in the same manner as drosophila miR-8 miRNA regulates the expression by directly binding to 3′ UTR of ush mRNA. Specifically, in order to obtain cDNA of FOG2, represented by SEQ ID: 110, from K562 cell lines, total RNA was extracted using RNeasy mini kit (QIAGEN, US). Then, 1 μg of total RNA and 1 μl of Oligo-dT (Invitrogen, US) were charged with up to 50 μl of distilled water, and placed into SuperScript First-Strand Synthesis System (Invitrogen, US), followed by RT-PCR reaction. […] By using pCK-FOG2, primers noted in Table 8, and QuickChange Site-Directed Mutagenesis kit, one (FOG2 m1, FOG2 m2, FOG2 m3), two ((FOG2 m12, FOG2 m23) or three (FOG2 m123) mutants were introduced into three miR-200 target sites of FOG2 3′UTR. Hela cell lines were transfected with wild-type FOG2(FOG2 wt), FOG2 ml, FOG2 m2, FOG2 m3, FOG2 m12, FOG2 m23 or FOG2 m123, together with renilla luciferase expression vector and synthesized siGFP, miR-141/200a or miR-200b/c/429. Then, the activity of luciferase was measured in the same manner as described in Example 8-2. The synthesized miRNA include a mixture of the same levels of miRNAs including respective seed sequences. […]

Regarding “5′-UAACACUGUCUGGUAACGAUGU-3′ (listed as RNA, chemistry not given here) [miR-200a]”, the “expression of luciferase, FOG2 3′UTR” value is given as “suppressed the expression of luciferase, albeit less effectively than the other members did”.
With “5′-UAACACUGUCUGGUAAAGAUGG-3′ (listed as RNA, chemistry not given here) [miR-141]”, the “expression of luciferase, FOG2 3′UTR” value was “suppressed the expression of luciferase, albeit less effectively than the other members did”.
